We go through five molecules from US12252524B2, “GIP/GLP1 co-agonist compounds” (Eli Lilly and Company, priority 2018, dated 2025).

One assay addresses T1, human Gcg receptor (Homo sapiens, UniProt P47871).
T1 construct: expressed in transfected cells; crude membranes
Nature of the assay: [125I]-Glucagon binding (SPA), human Gcg receptor. The following applies: read-out: hGLcgR Ki, nM (SEM, n). The method in brief: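 Scintillation counts are taken after membranes and WGA beads incubate and settle for 12 hours at room temperature. Buffer is 25 mM HEPES, pH 7.4, with CaCl2, MgCl2, bacitracin and Tween-20. Ki values, from four-parameter IC50 fits, are geometric means over independent days.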

The target of another assay is T2, human GIP receptor (Homo sapiens, UniProt P48546).
T2 construct: expressed in transfected cells; crude membranes
T2 sequence (P48546 22-466): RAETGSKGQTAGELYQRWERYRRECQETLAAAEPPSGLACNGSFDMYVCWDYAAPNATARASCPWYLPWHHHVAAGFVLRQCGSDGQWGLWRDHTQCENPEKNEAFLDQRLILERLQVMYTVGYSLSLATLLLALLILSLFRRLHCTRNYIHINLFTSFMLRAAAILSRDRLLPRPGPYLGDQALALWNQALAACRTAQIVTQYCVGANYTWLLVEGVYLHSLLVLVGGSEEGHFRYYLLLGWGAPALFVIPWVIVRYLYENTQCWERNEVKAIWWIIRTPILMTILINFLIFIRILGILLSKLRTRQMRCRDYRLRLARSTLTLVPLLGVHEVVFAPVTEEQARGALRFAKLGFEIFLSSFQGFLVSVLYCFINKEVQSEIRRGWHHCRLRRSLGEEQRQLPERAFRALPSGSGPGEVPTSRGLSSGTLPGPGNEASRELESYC
Kind of assay: [125I]-GIP binding (SPA), human GIP receptor. The following applies: read-out: hGIPR Ki, nM (SEM, n).

Assay [1] addresses human GLP-1 receptor (GLP-1R) (Homo sapiens, UniProt P43220). Nature of the assay: cAMP pharmacological functional assay in presence of casein, hGLP-1R. The following applies: HEK293 cells expressing hGLP-1R, 0.1% Casein, geometric mean; read-out: hGLP1R cAMP Rel EC50 nM (SEM, n). The assay is classed as cell-based.
For assay [2], the target named is T3, gastric inhibitory peptide receptor (GIPR) (Homo sapiens, UniProt P48546).
T3 sequence (P48546 22-466): T2 sequence (P48546 22-466)
Kind of assay: cAMP pharmacological functional assay in presence of casein, hGIPR. The class given is cell-based. The following applies: HEK293 cells expressing hGIPR, 0.1% Casein, geometric mean; read-out: hGIPR cAMP Rel EC50 nM (SEM, n).

The target in the next assay is human GLP-1R (Homo sapiens, UniProt P43220). Nature of the assay: [125I]-GLP-1 binding (SPA), human GLP-1 receptor. Details: expressed in transfected cells; crude membranes. The following applies: read-out: hGLP1R Ki, (nM) (SEM, n). The method, boiled down:
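Crude-membrane binding assay; one membrane prep included 1 mM MgCl2 and 25 units/ml DNAse I during lysis. Assay buffer at pH 7.4 contains 0.1% (w/v) bacitracin and 0.003% (w/v) TWEEN-20. Ki is reported as geometric mean.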

In general, Ki refers to the dissociation constant of the complex between target and ligand, obtained from inhibition or displacement. Broadly, the EC50 is the midpoint of the concentration-response curve.

Each structure is given as a SMILES string. Numbered stars: 1 amine (or outer) side, 2 acyl side, 3 side chain; on linkers, the order of the positions; unused ones are H or OH. Square brackets hold non-standard residues; d marks the D form. Side chains are listed from the residue outwards. Peptide text beside a SMILES is read from it. * marks the point of attachment. C20 diacid = O=C(O)CCCCCCCCCCCCCCCCCCC(=O)*; C18 diacid = O=C(O)CCCCCCCCCCCCCCCCC(=O)*; αMePhe(2-F) = C[C@](N)(Cc1ccccc1F)C(=O)O; γGlu = O=C(O)[C@H](CCC(=O)[*:2])N[*:1]; AEEA = NCCOCCOCC(=O)O; Aib = CC(C)(N)C(=O)O

Chain of human GLP-1R (P43220 24-463): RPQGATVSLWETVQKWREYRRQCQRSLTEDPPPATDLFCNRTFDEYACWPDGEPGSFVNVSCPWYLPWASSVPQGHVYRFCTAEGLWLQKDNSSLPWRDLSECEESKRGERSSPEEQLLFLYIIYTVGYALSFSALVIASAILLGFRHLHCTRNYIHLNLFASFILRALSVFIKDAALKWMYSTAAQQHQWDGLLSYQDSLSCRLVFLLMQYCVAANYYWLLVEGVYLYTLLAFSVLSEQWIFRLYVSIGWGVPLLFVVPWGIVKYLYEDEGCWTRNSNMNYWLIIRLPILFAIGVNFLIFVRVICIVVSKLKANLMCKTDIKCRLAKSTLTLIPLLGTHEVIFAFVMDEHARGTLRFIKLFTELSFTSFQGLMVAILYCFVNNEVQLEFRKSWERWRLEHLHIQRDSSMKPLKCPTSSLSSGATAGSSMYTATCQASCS
Chain of human GLP-1 receptor (GLP-1R) (P43220 24-463): as above
T1 sequence (P47871 26-477): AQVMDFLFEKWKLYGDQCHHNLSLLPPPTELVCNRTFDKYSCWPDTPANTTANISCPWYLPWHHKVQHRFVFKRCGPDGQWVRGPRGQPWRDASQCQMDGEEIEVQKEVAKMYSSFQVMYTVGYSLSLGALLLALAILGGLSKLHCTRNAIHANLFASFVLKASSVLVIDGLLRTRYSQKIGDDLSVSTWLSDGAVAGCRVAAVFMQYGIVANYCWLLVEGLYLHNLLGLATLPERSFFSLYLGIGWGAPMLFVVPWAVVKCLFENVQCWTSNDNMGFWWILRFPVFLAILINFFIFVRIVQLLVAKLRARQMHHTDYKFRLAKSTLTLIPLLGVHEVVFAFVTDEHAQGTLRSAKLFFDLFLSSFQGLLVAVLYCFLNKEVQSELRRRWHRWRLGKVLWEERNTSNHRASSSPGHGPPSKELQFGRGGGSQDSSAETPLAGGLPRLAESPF

With `CC[C@H](C)[C@H](NC(=O)[C@H](CCCCN)NC(=O)[C@H](CC(=O)O)NC(=O)[C@H](CC(C)C)NC(=O)[C@H](CC(C)C)NC(=O)[C@@H](NC(=O)[C@H](CO)NC(=O)[C@H](Cc1ccc(O)cc1)NC(=O)[C@H](CC(=O)O)NC(=O)[C@H](CO)NC(=O)[C@@H](NC(=O)[C@H](Cc1ccccc1)NC(=O)[C@@H](NC(=O)CNC(=O)[C@H](CCC(=O)O)NC(=O)C(C)(C)NC(=O)[C@@H](N)Cc1ccc(O)cc1)[C@@H](C)O)[C@@H](C)O)[C@@H](C)CC)C(=O)N[C@@H](C)C(=O)N[C@@H](CCC(N)=O)C(=O)NC(C)(C)C(=O)N[C@@H](C)C(=O)N[C@@H](Cc1ccccc1)C(=O)N[C@H](C(=O)N[C@@H](CCC(=O)O)C(=O)N[C@@H](Cc1ccc(O)cc1)C(=O)N[C@@H](CC(C)C)C(=O)N[C@H](C(=O)N[C@@H](CCCCNC(=O)COCCOCCNC(=O)COCCOCCNC(=O)CC[C@H](NC(=O)CCCCCCCCCCCCCCCCCCC(=O)O)C(=O)O)C(=O)NCC(=O)NCC(=O)N1CCC[C@H]1C(=O)N[C@@H](CO)C(=O)N[C@@H](CO)C(=O)NCC(=O)N[C@@H](C)C(=O)N1CCC[C@H]1C(=O)N1CCC[C@H]1C(=O)N1CCC[C@H]1C(=O)N[C@@H](CO)C(N)=O)[C@@H](C)CC)[C@@H](C)CC` [Example 37] (H-Y[Aib]EGTFTSDYSILLDKIAQ[Aib]AFIEYLIK([AEEA-AEEA-γGlu-C20 diacid])GGPSSGAPPPS-NH2), the Ki came out at 255 nM on human Gcg receptor, 0.0523 nM at human GIP receptor and 3.84 nM at human GLP-1R. In addition, the figures for the EC50 in assay [1] and in assay [2] were 1.15 nM and 0.269 nM, respectively.
`CC[C@H](C)[C@H](NC(=O)[C@H](CC(C)C)NC(=O)[C@H](Cc1ccc(O)cc1)NC(=O)[C@H](CCC(=O)O)NC(=O)[C@@H](NC(=O)[C@H](Cc1ccccc1)NC(=O)[C@H](C)NC(=O)C(C)(C)NC(=O)[C@H](CCC(N)=O)NC(=O)[C@H](C)NC(=O)[C@H](CCCCNC(=O)COCCOCCNC(=O)COCCOCCNC(=O)CC[C@H](NC(=O)CCCCCCCCCCCCCCCCCCC(=O)O)C(=O)O)NC(=O)[C@H](CCC(=O)O)NC(=O)[C@H](CC(=O)O)NC(=O)[C@H](CC(C)C)NC(=O)C(C)(C)NC(=O)[C@@H](NC(=O)[C@H](CO)NC(=O)[C@H](Cc1ccc(O)cc1)NC(=O)[C@H](CC(=O)O)NC(=O)[C@H](CO)NC(=O)[C@@H](NC(=O)[C@](C)(Cc1ccccc1F)NC(=O)[C@@H](NC(=O)CNC(=O)[C@H](CCC(=O)O)NC(=O)C(C)(C)NC(=O)[C@@H](N)Cc1ccc(O)cc1)[C@@H](C)O)[C@@H](C)O)[C@@H](C)CC)[C@@H](C)CC)C(=O)N[C@@H](CCC(=O)O)C(=O)NCC(=O)NCC(N)=O` [Example 101] (H-Y[Aib]EGT[αMePhe(2-F)]TSDYSI[Aib]LDEK([AEEA-AEEA-γGlu-C20 diacid])AQ[Aib]AFIEYLIEGG-NH2): the Ki at human Gcg receptor stood at 117 nM; on human GIP receptor, 0.0953 nM; on human GLP-1R, 8.1 nM. Also, the EC50 in assay [1] was found to be 0.0579 nM; in assay [2] it was 0.0704 nM.
For the molecule `CC[C@H](C)[C@H](NC(=O)[C@H](CC(C)C)NC(=O)[C@H](Cc1ccc(O)cc1)NC(=O)[C@H](CCC(=O)O)NC(=O)[C@@H](NC(=O)[C@H](Cc1ccccc1)NC(=O)[C@@H](NC(=O)C(C)(C)NC(=O)[C@H](CCC(N)=O)NC(=O)[C@H](C)NC(=O)[C@H](CCCCNC(=O)COCCOCCNC(=O)COCCOCCNC(=O)CC[C@H](NC(=O)CCCCCCCCCCCCCCCCC(=O)O)C(=O)O)NC(=O)[C@H](CCCCN)NC(=O)[C@H](CC(=O)O)NC(=O)[C@H](CC(C)C)NC(=O)[C@H](CC(C)C)NC(=O)[C@@H](NC(=O)[C@H](CO)NC(=O)[C@H](Cc1ccc(O)cc1)NC(=O)[C@H](CC(=O)O)NC(=O)[C@H](CO)NC(=O)[C@@H](NC(=O)[C@H](Cc1ccccc1)NC(=O)[C@@H](NC(=O)CNC(=O)[C@H](CCC(=O)O)NC(=O)C(C)(C)NC(=O)[C@@H](N)Cc1ccc(O)cc1)[C@@H](C)O)[C@@H](C)O)[C@@H](C)CC)[C@@H](C)O)[C@@H](C)CC)C(=O)N[C@@H](CCC(=O)O)C(=O)NCC(=O)NCC(=O)N1CCC[C@H]1C(=O)N[C@@H](CO)C(=O)N[C@@H](CO)C(=O)NCC(N)=O` [Example 321] (H-Y[Aib]EGTFTSDYSILLDKK([AEEA-AEEA-γGlu-C18 diacid])AQ[Aib]TFIEYLIEGGPSSG-NH2), the Ki at human Gcg receptor is 770 nM; at human GIP receptor it was 0.064 nM; at human GLP-1R, 4.2 nM. Further, the EC50 in assay [1] came to 0.204 nM; in assay [2], 0.0752 nM.
In the case of `CC[C@H](C)[C@H](NC(=O)[C@H](CC(C)C)NC(=O)[C@H](Cc1ccc(O)cc1)NC(=O)[C@H](CCC(=O)O)NC(=O)[C@@H](NC(=O)[C@H](Cc1ccccc1)NC(=O)[C@H](C)NC(=O)C(C)(C)NC(=O)[C@H](CCC(N)=O)NC(=O)[C@H](C)NC(=O)[C@H](CCCCNC(=O)COCCOCCNC(=O)COCCOCCNC(=O)CC[C@H](NC(=O)CCCCCCCCCCCCCCCCC(=O)O)C(=O)O)NC(=O)[C@H](CCC(=O)O)NC(=O)[C@H](CC(=O)O)NC(=O)[C@H](CC(C)C)NC(=O)[C@H](CC(C)C)NC(=O)[C@@H](NC(=O)[C@H](CO)NC(=O)[C@H](Cc1ccc(O)cc1)NC(=O)[C@H](CC(=O)O)NC(=O)[C@H](CO)NC(=O)[C@@H](NC(=O)[C@](C)(Cc1ccccc1F)NC(=O)[C@@H](NC(=O)CNC(=O)[C@H](CCC(=O)O)NC(=O)C(C)(C)NC(=O)[C@@H](N)Cc1ccc(O)cc1)[C@@H](C)O)[C@@H](C)O)[C@@H](C)CC)[C@@H](C)CC)C(=O)N[C@@H](CCC(=O)O)C(=O)NCC(=O)NCC(=O)N1CCC[C@H]1C(=O)N[C@@H](CO)C(=O)N[C@@H](CO)C(=O)NCC(N)=O` [Example 311] (H-Y[Aib]EGT[αMePhe(2-F)]TSDYSILLDEK([AEEA-AEEA-γGlu-C18 diacid])AQ[Aib]AFIEYLIEGGPSSG-NH2), the Ki on human Gcg receptor was 115 nM; at human GIP receptor, 0.0497 nM; at human GLP-1R, 11.5 nM. Also, the EC50 amounted to 0.0393 nM in assay [1] and 0.0334 nM in assay [2].
With `CC[C@H](C)[C@H](NC(=O)[C@H](CC(C)C)NC(=O)[C@](C)(Cc1ccc(O)cc1)NC(=O)[C@@H](CCC(=O)O)NC(=O)[C@@H](NC(=O)[C@H](Cc1ccccc1)NC(=O)[C@H](CCC(=O)O)NC(=O)C(C)(C)NC(=O)[C@H](CCC(N)=O)NC(=O)[C@H](C)NC(=O)[C@H](CCCCNC(=O)COCCOCCNC(=O)COCCOCCNC(=O)CC[C@H](NC(=O)CCCCCCCCCCCCCCCCC(=O)O)C(=O)O)NC(=O)[C@H](CCCN)NC(=O)[C@H](CC(=O)O)NC(=O)[C@H](CC(C)C)NC(=O)[C@](C)(CC(C)C)NC(=O)[C@@H](NC(=O)[C@H](CO)NC(=O)[C@H](Cc1ccncc1)NC(=O)[C@H](CC(=O)O)NC(=O)[C@H](CO)NC(=O)[C@@H](NC(=O)[C@](C)(Cc1ccccc1F)NC(=O)[C@@H](NC(=O)CNC(=O)[C@H](CCC(=O)O)NC(=O)C(C)(C)NC(=O)[C@@H](N)Cc1ccc(O)cc1)[C@@H](C)O)[C@@H](C)O)[C@@H](C)CC)[C@@H](C)CC)C(=O)N[C@@H](CCC(=O)O)C(=O)NCC(=O)NCC(=O)N1CCC[C@H]1C(=O)N[C@@H](CO)C(=O)N[C@@H](CO)C(=O)NCC(N)=O` [Example 264], the Ki is 388 nM at human Gcg receptor, 0.015 nM at human GIP receptor and 0.412 nM at human GLP-1R. In addition, the figures for the EC50 in assay [1] and in assay [2] were 0.0229 nM and 0.0196 nM, respectively.
